Test in all cases: KinomeScan profiling
Holding throughout (assay type): binding

The target in assay [1] is DMPK2 (Homo sapiens, UniProt Q6DT37). As to conditions: DMPK2, 1 μM; read-out: % control. As for the experimental part:
(§1) The kinase selectivity of inventive compounds 77, 96 and 101 was evaluated by KinomeScan®. KinomeScan® analysis was performed against a near comprehensive panel of 468 kinases. The control percentage (% control) for inventive compounds at 1 μM in DMSO was determined by Equation 1: % control=(inventive compound−positive control)/(negative control−positive control)×100%, Equation 1
(§2) wherein the positive control is a compound with a % control value of 0% relative light units (RLU), and the negative control (i.e., DMSO) has % control value of 100% RLU. The enzyme selectivity in the present invention is defined as follows: inventive compounds are considered active for an enzyme when the observed % control is less than 35% (<35%).

Assay [2] deals with T1, INSR (Homo sapiens, UniProt P06213).
T1 construct: purchased KinomeScan®
To be noted: read-out: % control. As for the experimental part: as §1, §2

For assay [3], the target named is T2, MEK5 (Homo sapiens, UniProt Q13163).
T2 sequence (Q13163 1-448): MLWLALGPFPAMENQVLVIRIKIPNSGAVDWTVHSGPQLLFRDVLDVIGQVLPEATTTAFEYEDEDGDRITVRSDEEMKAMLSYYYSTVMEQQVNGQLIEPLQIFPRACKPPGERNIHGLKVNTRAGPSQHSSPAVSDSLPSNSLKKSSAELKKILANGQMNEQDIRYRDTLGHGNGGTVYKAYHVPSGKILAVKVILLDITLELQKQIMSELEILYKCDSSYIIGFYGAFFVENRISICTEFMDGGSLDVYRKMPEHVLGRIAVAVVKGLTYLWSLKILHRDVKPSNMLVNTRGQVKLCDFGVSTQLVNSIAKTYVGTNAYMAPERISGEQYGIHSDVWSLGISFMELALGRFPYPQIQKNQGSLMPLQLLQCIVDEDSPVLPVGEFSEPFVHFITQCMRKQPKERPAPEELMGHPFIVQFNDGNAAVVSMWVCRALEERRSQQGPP
As to conditions: MEK5, 1 μM; read-out: % control. As for the experimental part:
as §1, §2

Assay [4] deals with p38-alpha (Homo sapiens, UniProt Q16539). To be noted: read-out: % control. As for the experimental part:
as §1, §2

The target in assay [5] is RAF1 (Homo sapiens, UniProt P04049). To be noted: RAF1, 1 μM; read-out: % control. As for the experimental part: as §1, §2
Sequence of RAF1 (P04049 whole entry): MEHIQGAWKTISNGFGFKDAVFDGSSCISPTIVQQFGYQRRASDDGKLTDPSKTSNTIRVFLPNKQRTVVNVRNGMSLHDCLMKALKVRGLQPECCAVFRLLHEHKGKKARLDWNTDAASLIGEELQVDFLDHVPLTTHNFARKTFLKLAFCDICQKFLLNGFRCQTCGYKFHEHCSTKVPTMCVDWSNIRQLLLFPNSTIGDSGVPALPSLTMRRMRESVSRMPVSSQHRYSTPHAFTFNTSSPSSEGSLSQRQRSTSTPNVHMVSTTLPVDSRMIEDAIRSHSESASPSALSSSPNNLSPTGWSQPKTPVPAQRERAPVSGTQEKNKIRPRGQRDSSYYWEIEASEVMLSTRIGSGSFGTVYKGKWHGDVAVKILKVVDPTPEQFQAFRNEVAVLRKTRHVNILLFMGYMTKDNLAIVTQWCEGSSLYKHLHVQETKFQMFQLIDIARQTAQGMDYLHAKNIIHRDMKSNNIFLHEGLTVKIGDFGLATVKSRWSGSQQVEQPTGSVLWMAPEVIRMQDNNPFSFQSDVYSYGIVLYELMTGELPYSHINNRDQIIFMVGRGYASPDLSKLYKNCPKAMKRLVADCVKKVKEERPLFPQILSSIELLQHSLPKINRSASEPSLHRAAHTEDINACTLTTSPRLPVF
Assay [6] concerns the target T3, LZK (Homo sapiens, UniProt O43283).
T3 sequence (O43283 1-966): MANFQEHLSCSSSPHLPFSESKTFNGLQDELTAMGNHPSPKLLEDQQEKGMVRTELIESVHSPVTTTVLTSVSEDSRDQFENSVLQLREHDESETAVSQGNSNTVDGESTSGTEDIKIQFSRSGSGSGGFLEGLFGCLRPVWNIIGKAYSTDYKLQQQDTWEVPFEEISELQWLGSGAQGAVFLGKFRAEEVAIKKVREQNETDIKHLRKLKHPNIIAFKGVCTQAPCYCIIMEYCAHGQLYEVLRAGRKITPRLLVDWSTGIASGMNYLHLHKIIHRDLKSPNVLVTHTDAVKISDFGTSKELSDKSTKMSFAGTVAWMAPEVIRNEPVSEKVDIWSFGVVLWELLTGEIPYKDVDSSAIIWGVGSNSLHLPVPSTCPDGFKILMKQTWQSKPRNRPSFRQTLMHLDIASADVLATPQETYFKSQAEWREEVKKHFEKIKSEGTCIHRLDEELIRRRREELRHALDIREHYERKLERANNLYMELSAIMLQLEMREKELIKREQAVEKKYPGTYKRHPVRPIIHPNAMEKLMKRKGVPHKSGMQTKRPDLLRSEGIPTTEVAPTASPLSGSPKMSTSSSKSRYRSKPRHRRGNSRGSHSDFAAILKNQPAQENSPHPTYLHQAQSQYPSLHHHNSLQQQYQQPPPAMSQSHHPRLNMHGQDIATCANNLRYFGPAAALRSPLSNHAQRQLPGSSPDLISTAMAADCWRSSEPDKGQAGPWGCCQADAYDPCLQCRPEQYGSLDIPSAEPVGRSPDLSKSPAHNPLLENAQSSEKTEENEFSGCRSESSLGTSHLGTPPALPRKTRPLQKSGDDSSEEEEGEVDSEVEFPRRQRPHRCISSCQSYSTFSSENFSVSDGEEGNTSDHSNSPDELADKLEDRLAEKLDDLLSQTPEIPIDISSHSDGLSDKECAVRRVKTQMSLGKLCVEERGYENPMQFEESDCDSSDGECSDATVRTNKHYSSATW
To be noted: read-out: % control. As for the experimental part:
as §1, §2

For assay [7], the target named is T4, ARK5 (Homo sapiens, UniProt O60285).
T4 construct: purchased KinomeScan®
T4 sequence (O60285 1-661): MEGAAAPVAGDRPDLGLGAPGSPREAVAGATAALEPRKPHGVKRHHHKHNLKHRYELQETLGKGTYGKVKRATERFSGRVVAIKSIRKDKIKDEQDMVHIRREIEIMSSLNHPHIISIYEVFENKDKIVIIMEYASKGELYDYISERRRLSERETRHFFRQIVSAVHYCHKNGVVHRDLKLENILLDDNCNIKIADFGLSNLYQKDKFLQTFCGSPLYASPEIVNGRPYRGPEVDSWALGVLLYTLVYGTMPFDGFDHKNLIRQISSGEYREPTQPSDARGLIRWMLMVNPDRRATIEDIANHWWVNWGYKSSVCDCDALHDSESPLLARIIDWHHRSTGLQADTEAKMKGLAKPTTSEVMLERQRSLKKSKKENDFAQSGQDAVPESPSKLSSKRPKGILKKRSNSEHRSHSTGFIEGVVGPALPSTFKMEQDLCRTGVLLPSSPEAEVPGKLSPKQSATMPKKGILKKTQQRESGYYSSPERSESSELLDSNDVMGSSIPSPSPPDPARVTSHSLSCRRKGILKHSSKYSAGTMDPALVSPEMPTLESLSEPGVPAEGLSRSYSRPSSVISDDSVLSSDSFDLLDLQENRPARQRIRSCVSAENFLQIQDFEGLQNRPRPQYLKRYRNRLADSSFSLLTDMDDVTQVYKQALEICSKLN
As to conditions: ARK5, 1 μM; read-out: % control. As for the experimental part:
as §1, §2

For assay [8], the target named is CDK4-cyclinD1 (Homo sapiens, UniProt P11802). As to conditions: CDK4-cyclinD1, 1 μM; read-out: % control. As for the experimental part:
as §1, §2

Assay [9] concerns the target LYN (Homo sapiens, UniProt P07948). To be noted: read-out: % control. As for the experimental part:
as §1, §2

Assay [10] has as its target PRKCQ (Homo sapiens, UniProt Q04759). As to conditions: read-out: % control. As for the experimental part: as §1, §2
The target of assay [11] is ROCK1 (Homo sapiens, UniProt Q13464). To be noted: ROCK1, 1 μM; read-out: % control. As for the experimental part:
as §1, §2

Structures are written as SMILES.

Sequence of ROCK1 (Q13464 whole entry): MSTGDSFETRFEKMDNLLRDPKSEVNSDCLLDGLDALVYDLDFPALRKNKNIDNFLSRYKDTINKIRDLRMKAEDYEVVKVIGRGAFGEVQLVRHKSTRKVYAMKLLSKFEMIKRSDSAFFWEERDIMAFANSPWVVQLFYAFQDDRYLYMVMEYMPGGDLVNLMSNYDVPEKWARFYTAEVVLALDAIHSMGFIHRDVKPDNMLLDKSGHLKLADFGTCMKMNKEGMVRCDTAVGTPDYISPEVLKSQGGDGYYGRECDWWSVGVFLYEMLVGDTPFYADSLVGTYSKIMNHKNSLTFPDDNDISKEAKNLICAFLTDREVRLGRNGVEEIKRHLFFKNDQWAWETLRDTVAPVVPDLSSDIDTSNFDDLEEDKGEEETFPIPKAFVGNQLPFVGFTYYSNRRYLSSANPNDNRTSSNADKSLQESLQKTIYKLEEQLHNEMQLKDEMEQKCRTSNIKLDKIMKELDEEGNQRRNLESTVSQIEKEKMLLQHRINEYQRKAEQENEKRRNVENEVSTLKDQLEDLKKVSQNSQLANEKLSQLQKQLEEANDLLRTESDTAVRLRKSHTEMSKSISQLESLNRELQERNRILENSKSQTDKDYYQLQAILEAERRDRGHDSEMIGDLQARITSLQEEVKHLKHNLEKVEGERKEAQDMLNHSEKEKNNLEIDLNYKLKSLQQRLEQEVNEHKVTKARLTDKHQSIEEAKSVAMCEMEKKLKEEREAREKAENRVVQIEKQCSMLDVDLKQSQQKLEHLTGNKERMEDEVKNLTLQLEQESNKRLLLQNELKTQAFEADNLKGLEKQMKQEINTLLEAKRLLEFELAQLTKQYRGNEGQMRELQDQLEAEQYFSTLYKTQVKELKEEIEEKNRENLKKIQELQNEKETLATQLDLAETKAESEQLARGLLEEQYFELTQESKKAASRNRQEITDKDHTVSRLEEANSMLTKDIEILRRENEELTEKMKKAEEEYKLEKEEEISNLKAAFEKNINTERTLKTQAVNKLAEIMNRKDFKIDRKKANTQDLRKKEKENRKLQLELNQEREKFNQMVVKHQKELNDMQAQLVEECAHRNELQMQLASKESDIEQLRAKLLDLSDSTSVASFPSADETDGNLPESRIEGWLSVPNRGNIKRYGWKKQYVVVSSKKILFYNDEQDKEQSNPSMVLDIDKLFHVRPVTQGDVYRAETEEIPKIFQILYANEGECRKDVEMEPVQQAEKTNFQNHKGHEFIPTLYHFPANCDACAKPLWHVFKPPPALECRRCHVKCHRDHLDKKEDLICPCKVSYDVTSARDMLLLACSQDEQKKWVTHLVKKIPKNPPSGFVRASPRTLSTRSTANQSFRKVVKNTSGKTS
Sequence of DMPK2 (Q6DT37 whole entry): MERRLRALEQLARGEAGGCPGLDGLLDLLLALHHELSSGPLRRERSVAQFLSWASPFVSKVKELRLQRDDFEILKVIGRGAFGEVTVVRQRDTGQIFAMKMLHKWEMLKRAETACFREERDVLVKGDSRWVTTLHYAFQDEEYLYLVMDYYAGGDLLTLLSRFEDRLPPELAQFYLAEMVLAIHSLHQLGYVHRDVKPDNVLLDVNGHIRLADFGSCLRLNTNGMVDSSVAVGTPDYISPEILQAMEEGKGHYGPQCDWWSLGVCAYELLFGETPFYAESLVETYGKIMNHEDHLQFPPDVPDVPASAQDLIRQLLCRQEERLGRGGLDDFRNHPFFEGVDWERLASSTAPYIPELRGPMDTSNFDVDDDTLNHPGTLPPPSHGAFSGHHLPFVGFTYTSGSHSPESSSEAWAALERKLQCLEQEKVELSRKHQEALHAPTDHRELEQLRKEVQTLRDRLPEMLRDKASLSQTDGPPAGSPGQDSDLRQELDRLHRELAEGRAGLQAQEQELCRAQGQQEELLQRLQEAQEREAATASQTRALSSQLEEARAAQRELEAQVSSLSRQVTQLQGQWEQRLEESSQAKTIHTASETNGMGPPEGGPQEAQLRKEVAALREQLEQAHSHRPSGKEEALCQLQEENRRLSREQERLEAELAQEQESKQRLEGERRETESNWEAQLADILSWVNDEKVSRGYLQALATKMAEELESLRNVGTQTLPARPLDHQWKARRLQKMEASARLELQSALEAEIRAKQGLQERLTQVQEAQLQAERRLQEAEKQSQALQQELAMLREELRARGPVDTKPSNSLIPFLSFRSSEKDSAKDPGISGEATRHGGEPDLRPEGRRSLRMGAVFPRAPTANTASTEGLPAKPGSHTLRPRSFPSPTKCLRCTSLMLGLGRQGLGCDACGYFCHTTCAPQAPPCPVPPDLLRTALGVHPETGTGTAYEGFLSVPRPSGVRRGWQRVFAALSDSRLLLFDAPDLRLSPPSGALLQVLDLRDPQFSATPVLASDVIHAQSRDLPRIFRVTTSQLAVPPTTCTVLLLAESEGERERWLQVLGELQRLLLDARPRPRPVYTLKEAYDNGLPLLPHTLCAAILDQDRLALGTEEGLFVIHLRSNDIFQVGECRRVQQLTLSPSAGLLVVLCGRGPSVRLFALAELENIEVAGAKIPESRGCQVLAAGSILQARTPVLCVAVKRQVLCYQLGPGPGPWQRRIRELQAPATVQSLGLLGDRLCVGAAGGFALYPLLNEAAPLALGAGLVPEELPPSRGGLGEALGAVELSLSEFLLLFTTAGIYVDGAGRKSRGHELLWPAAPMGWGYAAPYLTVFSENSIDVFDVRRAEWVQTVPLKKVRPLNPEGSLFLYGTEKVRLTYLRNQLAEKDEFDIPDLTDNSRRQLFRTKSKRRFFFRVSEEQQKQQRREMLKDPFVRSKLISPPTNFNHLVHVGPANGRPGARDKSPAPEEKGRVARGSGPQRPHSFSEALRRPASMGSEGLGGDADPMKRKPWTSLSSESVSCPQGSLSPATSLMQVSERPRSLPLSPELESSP
Sequence of p38-alpha (Q16539 whole entry): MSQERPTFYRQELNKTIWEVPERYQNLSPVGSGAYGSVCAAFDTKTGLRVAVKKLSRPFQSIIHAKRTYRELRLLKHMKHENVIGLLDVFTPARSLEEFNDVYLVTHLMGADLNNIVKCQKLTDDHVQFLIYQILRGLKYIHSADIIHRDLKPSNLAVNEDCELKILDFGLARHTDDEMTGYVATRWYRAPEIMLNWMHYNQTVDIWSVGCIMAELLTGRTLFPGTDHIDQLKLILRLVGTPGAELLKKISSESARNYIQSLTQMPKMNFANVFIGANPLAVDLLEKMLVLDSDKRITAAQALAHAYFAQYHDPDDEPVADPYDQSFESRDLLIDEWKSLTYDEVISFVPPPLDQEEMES
Sequence of LYN (P07948 whole entry): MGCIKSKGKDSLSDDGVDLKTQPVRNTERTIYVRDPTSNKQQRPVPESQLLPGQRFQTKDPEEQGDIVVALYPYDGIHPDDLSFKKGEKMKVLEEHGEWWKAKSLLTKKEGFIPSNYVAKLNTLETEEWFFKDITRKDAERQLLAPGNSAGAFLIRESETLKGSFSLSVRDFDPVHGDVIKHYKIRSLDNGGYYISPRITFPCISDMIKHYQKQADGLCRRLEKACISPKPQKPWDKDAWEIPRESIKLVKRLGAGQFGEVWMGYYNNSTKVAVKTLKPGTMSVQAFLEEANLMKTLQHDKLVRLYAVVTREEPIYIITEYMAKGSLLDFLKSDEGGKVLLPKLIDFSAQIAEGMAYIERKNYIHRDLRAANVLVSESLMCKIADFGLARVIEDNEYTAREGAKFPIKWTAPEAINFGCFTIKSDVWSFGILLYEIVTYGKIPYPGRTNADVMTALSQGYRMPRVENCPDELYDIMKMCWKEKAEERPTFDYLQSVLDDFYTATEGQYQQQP
Sequence of CDK4-cyclinD1 (P11802 whole entry): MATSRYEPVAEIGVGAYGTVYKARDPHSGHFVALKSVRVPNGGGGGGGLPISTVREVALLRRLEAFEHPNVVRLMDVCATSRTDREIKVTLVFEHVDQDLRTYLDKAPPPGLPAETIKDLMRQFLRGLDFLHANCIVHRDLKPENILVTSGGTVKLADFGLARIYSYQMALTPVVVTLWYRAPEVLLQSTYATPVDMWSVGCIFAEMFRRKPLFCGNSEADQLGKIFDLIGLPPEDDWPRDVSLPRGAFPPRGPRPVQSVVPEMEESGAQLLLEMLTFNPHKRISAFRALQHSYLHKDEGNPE
Sequence of CDK4-cyclinD1 (P24385 whole entry partner): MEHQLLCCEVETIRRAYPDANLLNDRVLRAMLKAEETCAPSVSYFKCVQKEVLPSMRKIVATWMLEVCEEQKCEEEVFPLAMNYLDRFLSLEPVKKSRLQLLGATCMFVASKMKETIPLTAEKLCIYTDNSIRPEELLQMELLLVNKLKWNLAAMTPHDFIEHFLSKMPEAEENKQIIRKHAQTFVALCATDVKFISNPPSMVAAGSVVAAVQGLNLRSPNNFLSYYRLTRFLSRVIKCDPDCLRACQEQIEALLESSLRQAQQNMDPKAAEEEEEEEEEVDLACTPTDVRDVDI

Consider `CNc1c(-c2cnn([C@H]3CCN(C(C)=O)C[C@@H]3F)c2)cnc2[nH]cc(Cl)c12` [Compound 77, 1-((3S,4S)-4-(4-(3-chloro-4-(methylamino)-1H-pyrrolo[2,3-b]pyridin-5-yl)-1H-pyrazol-1-yl)-3-fluoropiperidin-1-yl)ethan-1-one], for which the remaining binding at 1 µM was 80% in assay [1]; 53% in assay [2]; 3.2% in [3]; 100% in [4]; 91% in assay [5]; 61% in assay [6]. Also, the remaining binding at 1 µM in assay [7] is 86%; in assay [8], 74%; in assay [9], 99%; in assay [10] it was 91%; in [11], 20%.

Turning to `CNc1c(-c2ccc(C(=O)N3CCC(N4CCOCC4)CC3)cc2)cnc2[nH]cc(Cl)c12` [Compound 96, (4-(3-chloro-4-(methylamino)-1H-pyrrolo[2,3-b]pyridin-5-yl)phenyl)(4-morpholinopiperidin-1-yl)methanone], the remaining binding at 1 µM in [1] was found to be 91%; in [2], 71%; in assay [3], 7.3%; in assay [4], 92%; in assay [5], 100%; in [6], 89%. In addition, the remaining binding at 1 µM in assay [7] stood at 64%; in assay [8], 73%; in [9], 100%; in [10], 76%; in [11] it was 4.7%.

For the compound `O=C(c1ccc(-c2cnc3[nH]cc(Cl)c3c2NC2CCCC2)cc1)N1CCC(N2CCOCC2)CC1` [Compound 101, (4-(3-chloro-4-(cyclopentylamino)-1H-pyrrolo[2,3-b]pyridin-5-yl)phenyl)(4-morpholinopiperidin-1-yl)methanone], the remaining binding at 1 µM in assay [1] was determined as 100%; in assay [2] it was 68%; in [3], 100%; in assay [4], 100%; in [5] it was 91%; in assay [6], 76%. In addition, the remaining binding at 1 µM in assay [7] amounted to 67%; in assay [8], 100%; in assay [9], 100%; in assay [10], 45%; in assay [11], 63%.

The values are drawn from patent US12275731B2, “Azaindole inhibitors of wild-type and mutant forms of LRRK2” (DANA-FARBER CANCER INSTITUTE, INC., priority 2018, dated 2025).
